In ChEMBL document CHEMBL4219257, “Novel 8-hydroxyquinoline derivatives targeting β-amyloid aggregation, metal chelation and oxidative stress against Alzheimer's disease” (Bioorg Med Chem, 2018):

What was measured:
[1] = biological target: T1, Amyloid-beta precursor protein (Homo sapiens, UniProt P05067); experiment: Inhibition of HFIP-pretreated amyloid beta (1 to 42) (unknown origin) self-induced aggregation at 10 uM after 48 hrs by thioflavin T-based fluorometric assay relative to control
[2] = Antioxidant activity assessed as trolox equivalents of AAPH radical scavenging activity at 10 uM preincubated for 15 mins followed by AAPH addition measured every minute for 120 mins by ORAC-FL assay; assay type: functional
[3] = biological target: T1, Amyloid-beta precursor protein; experiment: Inhibition of HFIP-pretreated amyloid beta (1 to 42) (unknown origin) self-induced aggregation after 48 hrs by thioflavin T-based fluorometric assay
[4] = Inhibition of Zn2+ - induced amyloid beta (1 to 42) (unknown origin) aggregation at 50 uM after 24 hrs by thioflavin T-based fluorometric assay relative to control
[5] = Inhibition of Cu2+ - induced amyloid beta (1 to 42) (unknown origin) aggregation at 50 uM after 24 hrs by thioflavin T-based fluorometric assay relative to control
in vitro = conditions: PAMPA
Description: Permeability of the compound at 100 ug/ml after 10 hrs by PAMPA

T1 sequence (P05067 whole entry): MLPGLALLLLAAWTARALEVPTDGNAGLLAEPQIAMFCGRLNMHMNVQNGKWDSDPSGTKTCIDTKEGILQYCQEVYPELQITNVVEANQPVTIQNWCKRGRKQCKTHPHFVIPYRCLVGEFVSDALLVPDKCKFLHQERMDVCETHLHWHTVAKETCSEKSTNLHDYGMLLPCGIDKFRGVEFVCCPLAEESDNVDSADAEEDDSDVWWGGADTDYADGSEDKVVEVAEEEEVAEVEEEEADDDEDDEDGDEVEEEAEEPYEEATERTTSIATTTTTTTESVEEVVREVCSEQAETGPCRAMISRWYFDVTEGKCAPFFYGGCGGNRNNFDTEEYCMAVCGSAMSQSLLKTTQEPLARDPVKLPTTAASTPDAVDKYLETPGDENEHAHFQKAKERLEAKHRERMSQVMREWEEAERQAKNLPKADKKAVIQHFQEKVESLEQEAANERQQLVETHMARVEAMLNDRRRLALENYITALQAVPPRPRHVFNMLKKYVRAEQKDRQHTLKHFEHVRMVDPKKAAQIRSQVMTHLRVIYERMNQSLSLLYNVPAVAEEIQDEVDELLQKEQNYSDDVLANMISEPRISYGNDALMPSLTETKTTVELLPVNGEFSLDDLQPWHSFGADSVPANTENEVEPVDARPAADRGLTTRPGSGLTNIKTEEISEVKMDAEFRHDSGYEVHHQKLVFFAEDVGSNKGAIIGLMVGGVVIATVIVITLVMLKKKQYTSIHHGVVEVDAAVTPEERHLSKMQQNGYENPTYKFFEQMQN

Structure (SMILES) | inhibition [1] | Activity [2] | IC50 [3] | inhibition [4] | inhibition [5] | Papp at 10 h, 100 ug/ml (in vitro)
O=C(CCc1ccccc1)N1CCN(Cc2ccc(O)c3ncccc23)CC1 | 28.1% | 2.6 equiv | 19.7 µM | – | – | –
O=C(/C=C/c1ccccc1)N1CCN(Cc2ccc(O)c3ncccc23)CC1 | 55% | 1.65 equiv | 8.86 µM | 66.5% | 69.8% | –
CCn1cc(C(=O)O)c(=O)c2cc(F)c(N3CCNC(C)C3)c(F)c21 (stereo not given) [LOMEFLOXACIN] | – | – | – | – | – | 1.59 ×10⁻⁶ cm/s
N#Cc1ccc(/C=C/C(=O)N2CCN(Cc3ccc(O)c4ncccc34)CC2)cc1 | 27.8% | 1.77 equiv | 16.8 µM | – | – | –
O=C(/C=C/c1ccc(F)cc1F)N1CCN(Cc2ccc(O)c3ncccc23)CC1 | 73.4% | 1.57 equiv | 5.05 µM | 52% | 62.1% | 18.6 ×10⁻⁶ cm/s
Oc1c(I)cc(Cl)c2cccnc12 | 25.7% | 0.53 equiv | – | 55.3% | 61.4% | –
Oc1ccc(/C=C/c2cc(O)cc(O)c2)cc1 | – | 3.28 equiv | – | – | – | –
COc1ccc(/C=C/C(=O)N2CCN(Cc3ccc(O)c4ncccc34)CC2)cc1 | 12.3% | 1.25 equiv | – | – | – | –
COc1ccc(CCC(=O)N2CCN(Cc3ccc(O)c4ncccc34)CC2)cc1 | 34.3% | 2.89 equiv | 18.3 µM | – | – | –
O=C(/C=C/c1ccc(Br)cc1)N1CCN(Cc2ccc(O)c3ncccc23)CC1 | 8.65% | 0.93 equiv | – | – | – | –
C[C@]12CC[C@@H]3c4ccc(O)cc4CC[C@H]3[C@@H]1CC[C@@H]2O [ESTRADIOL] | – | – | – | – | – | 9.17 ×10⁻⁶ cm/s
COc1ccc(/C=C/C(=O)N2CCN(Cc3ccc(O)c4ncccc34)CC2)cc1OC | 29.4% | 1.08 equiv | 18.9 µM | – | – | 8.82 ×10⁻⁶ cm/s
